The NIST ThermoML archive (doi:10.1021/acs.jced.7b01006)

What was measured:
[1] = for viscosity / mass density / electrical conductivity: 100 kPa, Liquid; for viscosity: Falling or rolling sphere viscometry; for mass density: Vibrating tube method; for electrical conductivity: Alternating current cell with electrodes; for surface tension liquid-gas: Wilhelmy plate
[2] = xn = mol fraction of the nth substance listed; details: 100 kPa, Liquid, x2 = 0; for viscosity: Falling or rolling sphere viscometry; for mass density: Vibrating tube method

CC#N [acetonitrile]
[1]
Details	mass density [kg/m3]	viscosity [mPa·s]
288.15 K	787.58	0.376
293.15 K	781.89	0.357
298.15 K	776.52	0.339
303.15 K	771.12	0.324
308.15 K	765.83	0.309
313.15 K	760.36	0.295
318.15 K	755.14	0.283
323.15 K	749.44	0.272

CCCCn1cc[n+](C)c1C.N#C[S-] [1-butyl-2,3-dimethylimidazolium thiocyanate]
[1]
Details	electrical conductivity [S/m]	mass density [kg/m3]	surface tension liquid-gas [mN/m]	viscosity [mPa·s]
288.15 K	0.106	1084.2	–	452.7
293.15 K	0.153	1081.11	–	311.3
298.15 K	0.217	1078.2	44.8	218
303.15 K	0.293	1075.18	–	157.9
308.15 K	0.386	1072.16	–	118.9
313.15 K	0.496	1069.15	–	90.46
318.15 K	0.627	1066.16	–	72.04
323.15 K	0.774	1063.2	–	57.11

CCC[n+]1ccn(C)c1C.N#C[S-] [1,2-dimethyl-3-propylimidazolium thiocyanate]
[1]
Details	electrical conductivity [S/m]	mass density [kg/m3]	surface tension liquid-gas [mN/m]	viscosity [mPa·s]
288.15 K	0.255	1099.81	–	316.5
293.15 K	0.361	1096.75	–	215.8
298.15 K	0.459	1093.67	48.8	151.9
303.15 K	0.583	1090.61	–	110.1
308.15 K	0.733	1087.57	–	83.42
313.15 K	0.905	1084.55	–	64.78
318.15 K	1.1	1081.54	–	50.96
323.15 K	1.33	1078.54	–	41.55

CC#N [acetonitrile] + CCC[n+]1ccn(C)c1C.N#C[S-]
[2]
Details	mass density [kg/m3]	viscosity [mPa·s]
288.15 K	787.58	0.376
293.15 K	781.89	0.357
298.15 K	776.52	0.339
303.15 K	771.12	0.324
308.15 K	765.83	0.309
313.15 K	760.36	0.295
318.15 K	755.14	0.283
323.15 K	749.44	0.272

CC#N [acetonitrile] + CCCCn1cc[n+](C)c1C.N#C[S-]
[2]
Details	mass density [kg/m3]	viscosity [mPa·s]
288.15 K	787.58	0.376
293.15 K	781.89	0.357
298.15 K	776.52	0.339
303.15 K	771.12	0.324
308.15 K	765.83	0.309
313.15 K	760.36	0.295
318.15 K	755.14	0.283
323.15 K	749.44	0.272
